Reference: ChEMBL document CHEMBL3507680, “University of Dundee, Gates Library screen for HepG2 cell viability”

Assay: Human HepG2 cell viability assay in 384 well format
Assay type: toxicity, cell-based
Set-up: dose 125 nL, time 70.5 hour; concentration not given beside the values
Details: HepG2 cells, read-out: Inhibition

Row | Structure (SMILES) | cytotoxicity at 70.5 h [%]
1 | Cc1cc(C(=O)Nc2ccc(OCC3CCOCC3)cc2)[nH]n1 | 1.95
2 | Cc1cc(NC(=O)Cn2nc(C)c(C#N)c2N)ccc1Br | -7.3
3 | COc1ccc(C)cc1NC(=O)Cn1nc(C)c(C#N)c1N | -5.55
4 | Cc1nn(CC(=O)Nc2ccc(F)cc2)c(N)c1C#N | -0.498
5 | O=C(Cn1cc(C2CC2)nn1)NC(c1ccc(Cl)cc1)C1CC1 (stereo unspecified) | -8.06
6 | O=C(Cn1cc(C2CC2)nn1)NC(c1cc(F)ccc1F)C1CC1 (stereo unspecified) | -5.37
7 | CNC(=O)C(C)(C)CNC(=O)Nc1ccc(C)cn1 | -3.94
8 | CNC(=O)C(C)(C)CNC(=O)Nc1ccncc1C | -9.08
9 | NC(=O)c1cccc(CCNC(=O)N2CCCC2)c1 | -8
10 | COc1cc(NCc2ncc[nH]2)ccc1Br | -1.95
11 | COCCn1cc(NC(=O)NCC(C)N2CCOCC2)cn1 (stereo unspecified) | -13.2
12 | CC(CC#N)N(C)Cc1ccc(F)cc1F (stereo unspecified) | -6.44
13 | C=C(C)CN(CC)Cc1nc(CC)no1 | -8.43
14 | CC(CC#N)N(C)Cc1ccc(F)cc1C#N (stereo unspecified) | 11.9
15 | Cc1cnn(CCNC(C)c2nnc(-c3ccccc3)o2)c1 (stereo unspecified) | -7.05
16 | C=C(C)CN1CCOC(Cn2cncn2)C1 (stereo unspecified) | 32
17 | COc1ccc(NC(=O)C2CCCO2)cc1OCc1cccnc1 (stereo unspecified) | 49.9
18 | Cc1ccc2cc(C(=O)N3CCN(S(C)(=O)=O)CC3)[nH]c2c1 | 12.7
19 | O=C(COc1ccccc1)N(Cc1ccncc1)C1CC1 | -8.79
20 | COc1ccccc1C(C)N1CCN(S(C)(=O)=O)CC1 (stereo unspecified) | 11.4
21 | CC(=O)NC(C)(C)c1noc(C2(C#N)CCCCC2)n1 | -3.45
22 | O=C(NCc1nncn1C1CC1)c1ccc(F)c(COCC2CC2)c1 | 7.64
23 | COCCC1(CNC(=O)NCC2CCCS2)CCCC1 (stereo unspecified) | -3.7
24 | CC(NC(=O)N1CCN(c2cccs2)CC1)c1ccc(C#N)cc1 (stereo unspecified) | -2.79

Row | Structure (SMILES) | cytotoxicity at 70.5 h [%]
25 | CC(NC(=O)N1CCN(c2cccs2)CC1)c1ccncc1 (stereo unspecified) | -3.43
26 | CC(=O)N1CCCN(C(=O)NCCCc2cn[nH]c2C)CC1 | -2.68
27 | COCCOCC(=O)N(C)Cc1ccc(OCc2cccs2)cc1 | -6.68
28 | CCOC(=O)C1CCN(CCCc2nnnn2-c2ccccc2)CC1 | -3.5
29 | CC(=O)N(C)Cc1ccc(OCc2cccs2)cc1 | -2.58
30 | CCOCCN1CCN(CCCc2nnnn2-c2ccccc2)CC1 | -5.57
31 | CC(C)c1nsc(N2CCc3sccc3C2)n1 | -11.5
32 | COCCC1(CNC(=O)NCC2CCCN(C)C2)CCCC1 (stereo unspecified) | -1.2
33 | COc1ccc(CNC(C)c2cnc3cc(C)nn3c2C)cc1 (stereo unspecified) | -2.4
34 | Cc1cc2ncc(C(C)NCc3cccnc3)c(C)n2n1 (stereo unspecified) | -3.89
35 | CC(C)C1CN(C(=O)Nc2cnn(CC(F)F)c2)CCO1 (stereo unspecified) | -4.6
36 | Cc1nc(C2CCCN2CCOCC2CC2)no1 (stereo unspecified) | -11.1
37 | Cc1cnn(CCCNC(=O)NCCS(=O)(=O)Nc2ccccc2)c1 | -25.5
38 | NC(=O)C1CCN(CCCNC(=O)Nc2nncs2)CC1 | -14.5
39 | Cc1ccccc1C(CC(=O)N1CCc2sccc2C1)NC(N)=O (stereo unspecified) | -21.9
40 | Cc1csc(NC(=O)NCCCN2CCC(C(N)=O)CC2)n1 | -16.3
41 | CN1CC(C(=O)NCCc2ccc(Br)cc2F)CC1=O (stereo unspecified) | -19.2
42 | CCC(Nc1ccc(CCN2CCCCC2)cc1)C(N)=O (stereo unspecified) | -8.14
43 | CN1CC(C(=O)NCc2ccc(Br)cc2F)CC1=O (stereo unspecified) | -14.4
44 | Cc1cnn(CCCNC(=O)NC(C)C(=O)Nc2ccccc2)c1 (stereo unspecified) | 6.05
45 | CSc1ccc(OCCN2CCNC(=O)C2C)cc1 (stereo unspecified) | -15.5
46 | O=C(Cc1ccccc1O)NC1CCCN(c2ccccc2F)C1=O (stereo unspecified) | -18.3
47 | Cc1c(C(=O)NCC(C)(C)S(C)(=O)=O)cccc1-c1ccccn1 | -16.9
48 | Cc1ccccc1CNC(=O)CNc1ccc(OC2CCOC2)cc1 (stereo unspecified) | -13.6

Row | Structure (SMILES) | cytotoxicity at 70.5 h [%]
49 | COc1ccccc1CN(Cc1nc(C)no1)C1CC1 | -20.3
50 | Cc1cc(CC(=O)NC2CCCN(c3ccccc3Cl)C2=O)n[nH]1 (stereo unspecified) | -19
51 | COCc1nn(Cc2ccc(Br)s2)c(=O)o1 | -9.84
52 | COc1ccccc1CN(Cc1nc(CC(C)C)no1)C1CC1 | -14.2
53 | CCCc1nn(Cc2ccc(Br)s2)c(=O)o1 | -23.4
54 | NC1CCCN(Cc2cccc(C(F)(F)F)c2)C1=O (stereo unspecified) | -7.1
55 | CC(C)c1nc(C2CCCN2CCS(C)(=O)=O)no1 (stereo unspecified) | -12.9
56 | Cc1cc(CC(=O)NC2CCCN(Cc3ccccc3)C2=O)n[nH]1 (stereo unspecified) | -21.2
57 | Cc1cc(F)ccc1N1CCCC(NC(=O)CCCn2ccnc2)C1 (stereo unspecified) | -26
58 | CN(CCc1ccc2c(c1)CCO2)CC1CCS(=O)(=O)C1 (stereo unspecified) | -9.73
59 | CCc1noc(CN(C)C(=O)C(C)(C)Oc2cccc(Cl)c2)n1 | 7.49
60 | Cc1cc(C)c(CNC(=O)NCc2nnc3n2CCC3)c(=O)[nH]1 | 14.7
61 | Cc1cccc(-c2nc(C)nn2CN2CCN(S(C)(=O)=O)CC2)c1 | -3.93
62 | COC(=O)CNC(=O)C1(NC(=O)c2ccc3[nH]ncc3c2)CCCC1 | 0.707
63 | CC(C)S(=O)(=O)Cc1cccc(NC(=O)c2ccc[nH]2)c1 | -11
64 | CCc1noc(CN(C)C(=O)COc2cccc(Cl)c2C)n1 | -6.73
65 | CC(C)C(CCO)NC(=O)Nc1cc(F)ccc1-n1cccn1 (stereo unspecified) | -3.1
66 | CC(C)c1nc(C2CCCN2c2cnc3ccccc3n2)no1 (stereo unspecified) | -6.53
67 | COCC(=O)N1CCC(Nc2ccnc3ccc(Cl)cc23)CC1 | 4.85
68 | Cc1ccc(S(C)(=O)=O)cc1C(=O)NS(=O)(=O)c1cccs1 | -5.12
69 | Cc1nc2c(s1)C(N(C)C(=O)NCCCC(C)(C)CO)CCC2 (stereo unspecified) | -6.11
70 | O=C(CCOCC(F)(F)F)NS(=O)(=O)c1cccnc1 | -3.03
71 | CCC(C)NS(=O)(=O)Cc1cccc(NC(=O)c2ccc[nH]2)c1 (stereo unspecified) | -2.71
72 | CCC(C)NS(=O)(=O)Cc1cccc(NC(=O)C2=CCCC2)c1 (stereo unspecified) | -4.4

Row | Structure (SMILES) | cytotoxicity at 70.5 h [%]
73 | COc1cc(F)cc(NC(=O)NCc2cccc(N(C)C)n2)c1 | 16.5
74 | Cc1cc(C)c(CNC(=O)NCc2nnc3n2CCCCC3)c(=O)[nH]1 | -5.09
75 | CC1CCN(C(=O)CSCc2noc(C(C)C)n2)CC1 | -4.52
76 | Cn1cc(C(O)CNC(=O)Nc2cc(F)ccc2-n2cccn2)cn1 (stereo unspecified) | 5.74
77 | CCNC(=O)N(C)C1CCCc2nc(C)sc21 (stereo unspecified) | -2.26
78 | CC(=O)N1CCN(C(=O)NCCCN(C)S(C)(=O)=O)CC1 | -5.97
79 | CC(=O)N1CCCN(C(=O)NCCCN(C)S(C)(=O)=O)CC1 | -8.8
80 | CC1CCN(C(=O)CSCc2nc(C3CC3)no2)CC1 | -2.56
81 | CC(C)Cc1nc(CSCC(=O)N2CCC(C)CC2)no1 | 3.72
82 | Cn1ncnc1NCc1ccc(F)cc1 | -9.9
83 | Cc1cc(=O)n2nc(Oc3ccc(Cl)c(C)c3)sc2n1 | -6.83
84 | CC(NC(=O)NCc1cccnc1N(C)C)c1cccs1 (stereo unspecified) | -23.6
85 | Cc1ccc(S(=O)(=O)N2CCN(Cc3ccncc3)CC2)c(Cl)c1 | -26.7
86 | CC(C)NC(=O)c1noc2c1CN(Cc1cnn(C)c1)CC2 | -5.58
87 | Cc1cccc(S(=O)(=O)N2C[C@@H]3C[C@@H](c4nc(C)no4)O[C@@H]3C2)c1 | -3.34
88 | CCN(C(=O)c1nc2c(s1)CCCN2c1ccc(C)nn1)C(C)C | -3.47
89 | CC(C)CCC(=O)N1C[C@H]2CCN[C@H]2C1 | -3.29
90 | Cc1csc(NC(=O)[C@@H]2C[C@H]3[C@H](CCN3S(C)(=O)=O)O2)n1 | -1.16
91 | Cc1nocc1C(=O)N1CCOC2(COCCN(CC3CC3)C2)C1 (stereo unspecified) | -2.08
92 | Cc1ccc(N2CC[C@H](OCC3CC3)[C@@H]2Cc2ccncc2)nn1 | -4.81
93 | O=C(CC(F)(F)F)N1C[C@H]2CCN[C@H]2C1 | -2.74
94 | COCc1cncc2c1CCN(C(=O)c1cscn1)C2 | 20.4
95 | CC(=O)N1CCC2(CC1)CN(CC1CC1)c1ccc(F)cc12 | 1.47
96 | CN(C)C(=O)[C@H]1CCS(=O)(=O)[C@@H]2CN(c3ncccn3)C[C@H]12 | -4.18

Row | Structure (SMILES) | cytotoxicity at 70.5 h [%]
97 | CS(=O)(=O)NCc1ncn2c1CN(C(=O)C1CCCO1)CCC2 (stereo unspecified) | 0.98
98 | COc1cc(N2C[C@@H]3COC[C@@H](Cc4nnc(C)o4)[C@@H]3C2)ncn1 | -0.141
99 | Cn1cc(C(=O)NCc2cncc3c2CCN(CC2CC2)C3)cn1 | 17.9
100 | CC(C)N(C)Cc1cncc2c1CCN(CC(=O)N(C)C)C2 | 20
101 | CNC(=O)N1CCC2(CC1)c1ncc(-c3cccc(F)c3)n1CCN2C | -1.6
102 | Cc1ccc(CN2C[C@H](OCC3CCOCC3)[C@H]3COC[C@H]32)o1 | 17
103 | CCOC(=O)[C@]12CCCN(Cc3cccs3)C[C@H]1CN(C(C)=O)C2 | -1.84
104 | CN(C)CCN1C(=O)CCC12CCCN(C(=O)c1ccncc1F)C2 (stereo unspecified) | 15.9
105 | Cn1cncc1C(=O)N1CCOC2(COCCN(CC3CC3)C2)C1 (stereo unspecified) | -1.4
106 | CCOCc1cncc2c1CCN(C(=O)c1cscn1)C2 | -4.56
107 | CC(C)COCc1cncc2c1CCN(C(=O)c1cscn1)C2 | -2.6
108 | c1cncc(OC[C@]23COC[C@H]2CN(C2CCOCC2)C3)c1 | -1.59
109 | CN(Cc1ccco1)C[C@H]1OC[C@@H]2CN(c3ncc(F)cn3)CC[C@@H]21 | -1.81
110 | COCCO[C@H]1CCN(c2ccc(C)nn2)[C@H]1Cc1cccnc1 | 12.5
111 | CNC(=O)N1CCC2(CC1)c1ncc(C)n1CCN2C | -0.582
112 | N#Cc1ccc(N2CCC3(CCC(=O)N3CCN3CCCC3)CC2)nc1 | -9.44
113 | CN(C)CCN1C(=O)C2(CCN(CC3CC3)CC2)c2ccccc21 | -4.59
114 | CCN1C(=O)C2(CCN(CCN(C)C)CC2)c2ccccc21 | 19.9
115 | Cn1cnc(S(=O)(=O)N2CC3(CCN(Cc4ccncc4)C3)C2)c1 | -6.66
116 | Cc1cc(C(=O)N2CCc3nc(N4CCOCC4)nc(C)c3C2)c(C)o1 | -6.78
